Measurements published in patent EP3727588B1, “ACTIVATOR PEPTIDES OF THE ENZYME ADAM 10 AND RELATED USES IN THE TREATMENT OF ALZHEIMER'S DISEASE” (UNIVERSITA' DEGLI STUDI DI MILANO, priority 2017, dated 2019).
Peptide text beside a SMILES is read from it.

Experiments:
[1] = blood-brain barrier crossing, anti-TAT immunohistochemistry on coronal brain sections; format: in vivo; conditions: C57BL/6 mice, intraperitoneal injection 3 nmoles/g, 24 hours
Procedure: For the immunohistochemistry analyses, mice treated with the peptide were anaesthetized deeply and subjected to transcardial perfusion with 4% paraformaldehyde (prepared in PBS, pH 7.2-7.4), through the use of a peristaltic pump. The fixing liquid was inserted into the blood circulation through the left ventricle and after 10 minutes the brain was isolated. The sample was then post-fixed for 1 hour and 30 minutes at 4°C, then washed with PBS 1X and placed o/n in a 30% sucrose solution. The following day the sample was washed again with PBS 1X cut with the vibratome obtaining coronal sections of 50µm. Then the sections were stained through free-floating immunofluorescence technique. The fluorescence images were acquired using the Zeiss Confocal LSM510 Meta system with 63x objective at a resolution of 1024x1024 pixels. […]
The coronal sections were incubated with a specific antibody for the identification of the MAP2 neurons, and an antibody able to recognize the TAT sequence of HIV-1 present in the CPPs. As shown by the arrows in Figure 6, the presence of a specific signal of the anti-TAT antibody can be identified, which can only be detected in the coronal sections of brain of animals treated with CPPs. […] In the brain of animals only treated with saline solution (Figure 6, panel A), such signal cannot be detected.

[2] = body weight and food intake during 14 days' treatment; format: in vivo; conditions: C57BL/6 mice, daily intraperitoneal 3 nmol/g
Procedure: C57/BL6 adult mice were treated for 14 days with daily intraperitoneal injection of saline solution or peptides at a dose of 3 nmol/g (6-10 animals per experimental group). The animals were maintained in an enclosure at 25 ± 2 °C with an alternating light/dark cycle of 12 hours and had free access to water and food in the form of pellets (standard diet).
For the entire duration of the treatment, on a daily basis, the weight and food intake of each animal were monitored and recorded, in order to evaluate any changes caused by the treatment. 24 hours after the last injection the mice were anaesthetized, and then the blood was taken through cardiac puncture, whereas the brain and liver of the animal were rapidly dissected to perform biochemical or immunohistological analyses.
The body weight and food intake were monitored and recorded on a daily basis.

## N=C(N)NCCC[C@H](NC(=O)CNC(=O)[C@@H](N)Cc1ccc(O)cc1)C(=O)N[C@@H](CCCCN)C(=O)N[C@@H](CCCCN)C(=O)N[C@@H](CCCNC(=N)N)C(=O)N[C@@H](CCCNC(=N)N)C(=O)N[C@@H](CCC(N)=O)C(=O)N[C@@H](CCCNC(=N)N)C(=O)N[C@@H](CCCNC(=N)N)C(=O)N[C@@H](CCCNC(=N)N)C(=O)NCC(=O)NCC(=O)N[C@@H](CO)C(=O)NCC(=O)N[C@@H](CCC(N)=O)C(=O)N1CCC[C@H]1C(=O)N1CCC[C@H]1C(=O)N[C@@H](CCCNC(=N)N)C(=O)N[C@@H](CCC(N)=O)C(=O)N[C@@H](CCCNC(=N)N)C(=O)N1CCC[C@H]1C(=O)N[C@@H](CCCNC(=N)N)C(=O)NCC(=O)O [PEP3] (H-YGRKKRRQRRRGGSGQPPRQRPRG-OH)
[1]
  capacity to cross the blood-brain barrier (BBB): can cross the BBB and penetrate into the neuron cells
[2]
  food intake (ratio daily food intake / mean body weight): 97.09±2.18%
